Reference: patent publication US5356935A, “Reduced phenanthrenes” (Eli Lilly and Company, priority 1993, dated 1994)

Tests used:
[1] = target: T1, Type I 5α-reductase (Homo sapiens, UniProt P18405); assay: Human Type I steroid 5α-reductase assay (human scalp enzyme, [3H]-testosterone conversion); format: biochemical; conditions: compared to control reaction mixtures, read-out: percent inhibition of Type I 5AR; for inhibition at 0.01 µM: compound concentration .01 μM; for inhibition at 0.03 µM: compound concentration .03 μM; for inhibition at 0.1 µM: compound concentration .1 μM
T1 construct: Scalp punch biopsies from graft recipient sites were obtained from human hair transplant procedures; from tissue; host or cells: human scalp punch biopsies (pooled, 60-75 punches from one surgical procedure), 100,000×g pellet of homogenate
T1 sequence (P18405 1-259): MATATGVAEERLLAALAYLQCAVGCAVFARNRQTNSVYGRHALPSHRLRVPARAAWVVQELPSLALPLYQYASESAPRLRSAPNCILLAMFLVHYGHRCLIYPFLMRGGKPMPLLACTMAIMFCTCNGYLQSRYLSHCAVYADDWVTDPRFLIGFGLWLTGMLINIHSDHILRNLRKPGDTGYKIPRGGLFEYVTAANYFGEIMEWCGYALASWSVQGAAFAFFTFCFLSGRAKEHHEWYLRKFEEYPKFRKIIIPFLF
Method: Scalp punch biopsies from graft recipient sites were obtained from human hair transplant procedures immediately after surgery and were frozen on dry ice and stored at -80° C. Approximately 60-75 punches from one surgical procedure were used to generate an enzyme preparation. The subcutaneous tissue was cut away and discarded. The skin was frozen with liquid nitrogen and pulverized to powder. The powder was homogenized in 30 ml of ice-cold buffer (20 mM Tris-HCl, pH 7.5) using a Brinkmann Polytron (Westbury, N.Y.) with a PTA 10-S robe and a setting of 7. The homogenization procedure consisted of four 15 second pulses. Connective tissue was cleared from the probe with forceps between pulses. The homogenate was then filtered through cheese cloth and the filtrate centrifuged at 100,000×g for one hour in a Beckman L8-60M ultracentrifuge. The pellet was resuspended by homogenization with a Dounce homogenizer using the same buffer solution. An aliquot was taken for protein determination by the Lowry method, Lowry, et al., Protein Measurement with the Folin Phenol Reagent, J. Biol. Chem., 193,265-75 (1951). Aliquots of the enzyme preparation were stored at -80° until use.
(§1) This enzyme assay is based on the conversion of [^3 H]-testosterone to [^3 H]-5α-dihydrotestosterone (DHT) and other 5α-reduced metabolites. While about 90% of the 5α-reduced metabolites formed in these assays was DHT, androstanedione was formed at about 10%. Essentially no androsterone was detected. In a total volume of 1.0 ml, the assay contained 2.6 μCi [^3 H]-testosterone (50 nM), 500 μM of reduced nicotine adeninc dinucleotide phosphate, 100 mM Tris-HCl, pH 7.5, (in Type II assays, 40 mM sodium acetate at pH 5.5 is used instead of Tris-HCl) and test compounds as indicated. Test compounds were added in 20 μl of dimethylsulfoxide (20 μl of dimethylsulfoxide was added to blanks and controls). The reaction was initiated by the addition of 0.5 mg of Type I or Type II 5α-reductase. The reaction mixture was incubated for 30 min at 25° and terminated by the addition of 1 ml ice-cold stopping solution. The stopping solution contained 40 μM each of non-radioactivetestosterone, DHT, androstenedione, androstanedione, androsterone, androstan-3β,17β-diol, and androstan-3α,17β-diol.
(§2) The samples were prepared for high performance liquid chromatography by solid phase extraction. Disposable solid matrix extraction columns (C-18 reversed;phase, 6 ml, 500 mg; Bond Elut™ from Analytichem International; Harbor City, Calif.) were conditioned by washing with 5 ml of methanol followed by 5 ml of deionized water. The reaction mixtures were then applied to the columns. The columns were subsequently washed with 5 ml of acetone:water (1:4), followed by 0.3 ml of methanol. The samples were then eluted with 3 ml of methanol and collected in 20 ml scintillation vials. Three ml of water was then added to each scintillation vial. The solutions were then transferred to tubes and centrifuged for 30 min at 1000×g to remove any particulate material before chromatography.
(§3) The [^3 H]-testosterone substrate and its metabolites were separated by chromatography using a C-18 reversed phase column (Beckman Ultrasphere 5 μm spherical 80A pore, part no. 235329, 4.6 mm i.d.×[…]) with an isocratic mobile phase (46 water: 46 methanol: 8 tetrahydrofuran by volume). The column temperature was maintained at 35° and the flow rate was 1.5 ml/min. A 400 μl aliquot was injected onto the column and radioactivity was determined using a Beckman 171 in-line flow radioisotope detector in conjunction with Rainin Dynamax™ software and a Macintosh computer. The flow rate of the Atomflow™ scintillation fluid was 4.5 ml / min.

[2] = target: T2, Type II 5α-reductase (Homo sapiens, UniProt P31213); assay: Human Type II steroid 5α-reductase assay (human prostate enzyme, [3H]-testosterone conversion); format: biochemical; conditions: compared to control reaction mixtures, read-out: percent inhibition of Type II 5AR; for inhibition at 1 µM: compound concentration 1 μM; for inhibition at 3 µM: compound concentration 3 μM; for inhibition at 10 µM: compound concentration 10 μM; for inhibition at 0.3 µM: compound concentration .3 μM
T2 construct: from tissue; host or cells: human prostate tissue from surgery, 100,000×g pellet of homogenate
T2 sequence (P31213 1-254): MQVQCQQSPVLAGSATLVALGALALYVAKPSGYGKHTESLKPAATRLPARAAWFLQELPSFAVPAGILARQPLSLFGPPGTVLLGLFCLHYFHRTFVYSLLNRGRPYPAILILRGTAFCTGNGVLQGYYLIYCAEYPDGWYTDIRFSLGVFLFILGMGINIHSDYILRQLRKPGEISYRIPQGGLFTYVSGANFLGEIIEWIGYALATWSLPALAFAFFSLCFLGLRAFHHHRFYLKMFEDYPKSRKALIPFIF
Method: The same procedure as above was used for preparations using tissue from prostate surgery with the following changes: The buffer used was 20 mM sodium phosphate, pH 6.5; and the pellet was resuspended in the sodium phosphate buffer containing 20% glycerol.
as §1, §2, §3

Row | inhibition at 0.01 µM [1] [%] | inhibition at 0.03 µM [1] [%] | inhibition at 0.1 µM [1] [%] | inhibition at 1 µM [2] [%] | inhibition at 3 µM [2] [%] | inhibition at 10 µM [2] [%] | inhibition at 0.3 µM [2] [%] | SMILES
1 | 0 | 3 | 26 | 16 | 33 | 36 | 7 | C[C@]12CCC(=O)C(N)=C1C=Cc1cc(Cl)ccc12 [Example 2, (R)-1-amino-7-chloro-4,4a-dihydro-4a-methyl-2(3H)-phenanthreneone]
2 | 0 | 35 | 42 | 55 | 49 | 63 | 47 | C[C@]12CCC(=O)C(N)=C1CCc1cc(Cl)ccc12 [Example 1, (R)-1-amino-7-chloro-4,4a,9,10-tetrahydro-4a-methyl-2(3H)-phenanthreneone]
